Experimental data reported in patent US12582641B2, “Sulfur-containing compound based on glutarimide skeleton and application thereof” (SHANGHAITECH UNIVERSITY, priority 2019, dated 2026).

The molecules below were run on MM.1S cells (assay: Proliferation inhibition (IC50) in MM.1S cells, cell viability assay). Conditions: Homo sapiens, MM1.S, 72 h, read-out: IC50 (nM), proliferation inhibitory activity of MM.1S cells (half inhibitory concentration).
Description: MM.1S (B lymphoblast) was purchased from ATCC. Complete medium was RPMI1640 supplemented with 10% FBS and 1% Penicillin-Streptomycin. The cells used were identified as correct cells by STR cells, and were negative for mycoplasma through routine inspections.
IC50 values of the compounds of the present disclosure were measured using Cell Titer Blue, Cell Titer GLO, or WST reagent from Promega Company. Assay details are as follows: Cells were seeded in 100 μL RPMI1640 complete medium containing serum at a density of 15,000 cells/well. After 24 h, the inoculated cells were treated with diluted commercial inhibitor and the compounds of the present disclosure to be tested after serial dilution. After the cells were treated with the compounds of the present disclosure to be tested for 72 h, cell viability was determined after adding the cell viability detection kit listed above according to the reagent operating instructions. The negative control was DMSO, and the positive control was a commercial inhibitor, both of which were used to treat the cells through the same method as that of the compounds of the present disclosure. The growth inhibition of the compounds of the present disclosure on cells was plotted by Prism Graphpad software, and the IC50 values of the compounds of the present disclosure were calculated therefrom.
We tested the activities of the compounds of the present invention in MM.1S cell (which overexpressed IKZF1/3 and is highly sensitive to immunomodulatory drugs) through a dose-dependent manner. The cells were treated with the compounds of the present invention at 10 different successively decreasing concentrations (starting at the highest concentration of 10 μM; 5-fold serial dilutions) for 72 h, and then the cell viability determination was performed in accordance with CCK-8 reagent operating instructions. The experiment was repeated more than three times.

Row | SMILES | IC50
1 | CC1(C)[C@@H]2CC[C@@]1(C)[C@@H](NCCCCCSc1cccc3c1CN(C1CCC(=O)NC1=O)C3=O)C2 (stereo partly drawn) [SIAIS1221113, 3-(1-oxo-4-((5-(((1R,2S,4R)-1,7,7-trimethylbicyclo[2.2.1]heptan-2-yl)amino)pentyl)thio)isoindolin-2-yl)piperidine-2,6-dione] | 0.027 nM
2 | CC1(C)[C@@H]2CC[C@@]1(C)[C@@H](NCCCCCCSc1cccc3c1CN(C1CCC(=O)NC1=O)C3=O)C2 (stereo partly drawn) [SIAIS1221115, 3-(1-oxo-4-((6-(((1R,2S,4R)-1,7,7-trimethylbicyclo[2.2.1]heptan-2-yl)amino)hexyl)thio)isoindolin-2-yl)piperidine-2,6-dione] | 0.082 nM
3 | O=C1CCC(N2Cc3c(SCCCCCNC45CC6CC(CC(C6)C4)C5)cccc3C2=O)C(=O)N1 (centres unmarked) [SIAIS1221117, 3-(4-((5-((adamantan-1-yl)amino)pentyl)thio)-1-oxoisoindolin-2-yl)piperidine-2,6-dione] | 0.06 nM
4 | O=C1CCC(N2Cc3c(SCCCCCCN4CCC5(CCCCC5)CC4)cccc3C2=O)C(=O)N1 (centres unmarked) [SIAIS1221121, 3-(4-((6-(3-azaspiro[5.5]undecan-3-yl)hexyl)thio)-1-oxoisoindolin-2-yl)piperidine-2,6-dione] | 0.057 nM
5 | O=C1CCC(N2Cc3c(SCCCCCN4CCC5(CCCCC5)CC4)cccc3C2=O)C(=O)N1 (centres unmarked) [SIAIS1221123, 3-(4-((5-(3-azaspiro[5.5]undecan-3-yl)pentyl)thio)-1-oxoisoindolin-2-yl)piperidine-2,6-dione] | 0.051 nM
6 | CN(CCCCCCCSc1cccc2c1CN(C1CCC(=O)NC1=O)C2=O)C1CCC(C)(C)CC1 (centres unmarked) [SIAIS1221125, 3-(4-((7-((4,4-dimethylcyclohexyl)(methyl)amino)heptyl)thio)-1-oxoisoindolin-2-yl)piperidine-2,6-dione] | 0.035 nM
7 | CN(CCCCCCSc1cccc2c1CN(C1CCC(=O)NC1=O)C2=O)CC12CC3CC(CC(C3)C1)C2 (centres unmarked) [SIAIS1221127, 3-(4-((6-((adamantan-1-ylmethyl)(methyl)amino)hexyl)thio)-1-oxoisoindolin-2-yl)piperidine-2,6-dione] | 0.059 nM
8 | CN(CCCCCCCSc1cccc2c1CN(C1CCC(=O)NC1=O)C2=O)[C@H]1C[C@H]2CC[C@]1(C)C2(C)C (stereo partly drawn) [SIAIS1221129, 3-(4-((7-(methyl((1R,2S,4R)-1,7,7-trimethylbicyclo[2.2.1]heptan-2-yl)amino)heptyl)thio)-1-oxoisoindolin-2-yl)piperidine-2,6-dione] | 0.021 nM
9 | CC1(C)[C@@H]2CC[C@@]1(C)[C@@H](NCc1ccc(CSc3cccc4c3C(=O)N(C3CCC(=O)NC3=O)C4=O)cc1)C2 (stereo partly drawn) [SIAIS1221147, 2-(2,6-dioxopiperidin-3-yl)-4-((4-((((1R,2S,4R)-1,7,7-trimethylbicyclo[2.2.1]heptan-2-yl)amino)methyl)benzyl)thio)isoindoline-1,3-dione] | 0.458 nM
10 | CN1C(=O)CCC(N2Cc3c(SCCCCCCCNC45CC6CC(CC(C6)C4)C5)cccc3C2=O)C1=O (centres unmarked) [SIAIS1221149, 3-(4-((7-(adamantan-1-ylamino)heptyl)thio)-1-oxoisoindolin-2-yl)-1-methylpiperidine-2,6-dione] | 21.9 nM
11 | O=C1CCC(N2C(=O)c3cccc(SCCCCCCCNC4CCCCC4)c3C2=O)C(=O)N1 (centres unmarked) [SIAIS1221175, 4-((7-(cyclohexylamino)heptyl)thio)-2-(2,6-dioxopiperidin-3-yl)isoindoline-1,3-dione] | 0.938 nM
12 | CC1(C)[C@@H]2CC[C@@]1(C)[C@@H](NCCCCCCCSc1cccc3c1C(=O)N(C1CCC(=O)NC1=O)C3=O)C2 (stereo partly drawn) [SIAIS1221177, 2-(2,6-dioxopiperidin-3-yl)-4-((7-(((1R,2S,4R)-1,7,7-trimethylbicyclo[2.2.1]heptan-2-yl)amino)heptyl)thio)isoindoline-1,3-dione] | 0.258 nM
13 | O=C1CCC(N2C(=O)c3cccc(SCc4ccc(CNC56CC7CC(CC(C7)C5)C6)cc4)c3C2=O)C(=O)N1 (centres unmarked) [SIAIS1222013, 4-((4-(((adamantan-1-yl)amino)methyl)benzyl)thio)-2-(2,6-dioxopiperidin-3-yl)isoindoline-1,3-dione] | 0.621 nM
14 | CN(CCCCCCCSc1cccc2c1C(=O)N(C1CCC(=O)NC1=O)C2=O)C12CC3CC(CC(C3)C1)C2 (centres unmarked) [SIAIS1222029, 4-((7-((adamantan-1-yl)(methyl)amino)heptyl)thio)-2-(2,6-dioxopiperidin-3-yl)isoindoline-1,3-dione] | 0.21 nM
15 | O=C1CCC(N2C(=O)c3cccc(SCCCCCCNCC45CC6CC(CC(C6)C4)C5)c3C2=O)C(=O)N1 (centres unmarked) [SIAIS1222071, 4-((6-(((adamantan-1-yl)methyl)amino)hexyl)thio)-2-(2,6-dioxopiperidin-3-yl)isoindoline-1,3-dione] | 2.12 nM
16 | O=C1CCC(N2Cc3c(SCCCCCCCNC4CC5(CCC5)C4)cccc3C2=O)C(=O)N1 (centres unmarked) [SIAIS1222077, 3-(1-oxo-4-((7-(spiro[3.3]heptan-2-ylamino)heptyl)thio)isoindolin-2-yl)piperidine-2,6-dione] | 0.006 nM
17 | CC(C)(C)NCCCCCCCSc1cccc2c1CN(C1CCC(=O)NC1=O)C2=O (centres unmarked) [SIAIS1222079, 3-(4-((7-(tert-butylamino)heptyl)thio)-1-oxoisoindolin-2-yl)piperidine-2,6-dione] | 0.135 nM
18 | O=C1CCC(N2Cc3c(SCc4ccc(CNCC56CC7CC(CC(C7)C5)C6)cc4)cccc3C2=O)C(=O)N1 (centres unmarked) [SIAIS1222085, 3-(4-((4-(((adamantan-1-ylmethyl)amino)methyl)benzyl)thio)-1-oxoisoindolin-2-yl)piperidine-2,6-dione] | 0.029 nM

Row | SMILES | IC50
19 | O=C1CCC(N2C(=O)c3cccc(SCCCCCNC45CC6CC(CC(C6)C4)C5)c3C2=O)C(=O)N1 (centres unmarked) [SIAIS1222097, 4-((5-((adamantan-1-yl)amino)pentyl)thio)-2-(2,6-dioxopiperidin-3-yl)isoindoline-1,3-dione] | 0.409 nM
20 | CN(CCCCCCCSc1cccc2c1CN(C1CCC(=O)NC1=O)C2=O)C1CC1 (centres unmarked) [SIAIS1222103, 3-(4-((7-(cyclopropyl(methyl)amino)heptyl)thio)-1-oxoisoindolin-2-yl)piperidine-2,6-dione] | 0.25 nM
21 | O=C1CCC(N2Cc3c(SCCCCCCCNC4CC4)cccc3C2=O)C(=O)N1 (centres unmarked) [SIAIS1222105, 3-(4-((7-(cyclopropylamino)heptyl)thio)-1-oxoisoindolin-2-yl)piperidine-2,6-dione] | 0.181 nM
22 | O=C1CCC(N2Cc3c(SCCCCCCCN4C[C@H]5CCCC[C@H]5C4)cccc3C2=O)C(=O)N1 (stereo partly drawn) [SIAIS1222107, 3-(4-((7-((3aR,7aS)-hexahydro-1H-isoindol-2(3H)-yl)heptyl)thio)-1-oxoisoindolin-2-yl)piperidine-2,6-dione] | 0.05 nM
23 | O=C1CCC(N2C(=O)c3cccc(SCCCCCCNC45CC6CC(CC(C6)C4)C5)c3C2=O)C(=O)N1 (centres unmarked) [SIAIS1222109, 4-((6-((adamantan-1-yl)amino)hexyl)thio)-2-(2,6-dioxopiperidin-3-yl)isoindoline-1,3-dione] | 0.404 nM
24 | O=C1CCC(N2Cc3c(SCCCCCCCNC4CCC4)cccc3C2=O)C(=O)N1 (centres unmarked) [SIAIS1222115, 3-(4-((7-(cyclobutylamino)heptyl)thio)-1-oxoisoindolin-2-yl)piperidine-2,6-dione] | 0.182 nM
25 | O=C1CCC(N2Cc3c(SCCCCCCCNC4CCCC4)cccc3C2=O)C(=O)N1 (centres unmarked) [SIAIS1222117, 3-(4-((7-(cyclopentylamino)heptyl)thio)-1-oxoisoindolin-2-yl)piperidine-2,6-dione] | 0.123 nM
26 | O=C1CCC(N2Cc3c(SCCCCCCCNC45CC(C4)C5)cccc3C2=O)C(=O)N1 (centres unmarked) [SIAIS1222123, 3-(4-((7-(bicyclo[1.1.1]pentan-1-ylamino)heptyl)thio)-1-oxoisoindolin-2-yl)piperidine-2,6-dione] | 0.053 nM
27 | CC(NCCCCCCSc1cccc2c1CN(C1CCC(=O)NC1=O)C2=O)C12CC3CC(CC(C3)C1)C2 (centres unmarked) [SIAIS1222139, 3-(4-((6-((1-(adamantan-1-yl)ethyl)amino)hexyl)thio)-1-oxoisoindolin-2-yl)piperidine-2,6-dione] | 0.131 nM
28 | O=C1CCC(N2Cc3c(SCCCCCCCNC45CC6CC(CC(O)(C6)C4)C5)cccc3C2=O)C(=O)N1 (centres unmarked) [SIAIS1222141] | 0.342 nM
29 | O=C1CCC(N2Cc3c(SCCCCCCNC(=O)C45CC6CC(CC(C6)C4)C5)cccc3C2=O)C(=O)N1 (centres unmarked) [SIAIS1222143, N-(6-((2-(2,6-dioxopiperidin-3-yl)-1-oxoisoindolin-4-yl)thio)hexyl)adamantane-1-carboxamide] | 0.07 nM
30 | O=C1CCC(N2Cc3c(SCCCCCCNC(=O)C45CC6CC(CC(Cl)(C6)C4)C5)cccc3C2=O)C(=O)N1 (centres unmarked) [SIAIS1222145, 3-chloro-N-(6-((2-(2,6-dioxopiperidin-3-yl)-1-oxoisoindolin-4-yl)thio)hexyl)adamantane-1-carboxamide] | 0.043 nM
31 | O=C1CCC(N2Cc3c(SCCCCCCNCC4CCCCC4)cccc3C2=O)C(=O)N1 (centres unmarked) [SIAIS1222147, 3-(4-((6-((cyclohexylmethyl)amino)hexyl)thio)-1-oxoisoindolin-2-yl)piperidine-2,6-dione] | 0.083 nM
32 | CC(NCc1ccc(CSc2cccc3c2CN(C2CCC(=O)NC2=O)C3=O)cc1)C12CC3CC(CC(C3)C1)C2 (centres unmarked) [SIAIS1222157, 3-(4-((4-(((1-(adamantan-1-yl)ethyl)amino)methyl)benzyl)thio)-1-oxoisoindolin-2-yl)piperidine-2,6-dione] | 0.04 nM
33 | O=C1CCC(N2Cc3c(SCc4ccc(CNC5CC6(CCC6)C5)cc4)cccc3C2=O)C(=O)N1 (centres unmarked) [SIAIS1222159, 3-(1-oxo-4-((4-((spiro[3.3]heptan-2-ylamino)methyl)benzyl)thio)isoindolin-2-yl)piperidine-2,6-dione] | 0.05 nM
34 | O=C1CCC(N2Cc3c(SCc4ccc(CNC56CC(C5)C6)cc4)cccc3C2=O)C(=O)N1 (centres unmarked) [SIAIS1222161, 3-(4-((4-((bicyclo[1.1.1]pentan-1-ylamino)methyl)benzyl)thio)-1-oxoisoindolin-2-yl)piperidine-2,6-dione] | 0.035 nM
35 | O=C1CCC(N2Cc3c(SCCC45CC6CC(CC(C6)C4)C5)cccc3C2=O)C(=O)N1 (centres unmarked) [SIAIS1222173, 3-(4-((2-(adamantan-1-yl)ethyl)thio)-1-oxoisoindolin-2-yl)piperidine-2,6-dione] | 0.42 nM
